Results from the supplement of paper PMC10307832.

Tests used:
Assay in all cases: relative viability (nuclei count vs DMSO), 5 days (fraction); higher = more cells survive
A-427 = tested on: A-427
Outline: (§1)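 Dosing by pin tool came one day after lung cancer cell lines were seeded in 1536-well plates, using either one drug or a fixed anchor-drug dose plus five library-drug doses (not always all listed) in √10 steps. After 5 days, nuclei were counted on 4× images. Relative viability is treated-well nuclei count divided by vehicle-well nuclei count, and values are medians of duplicate plates.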

LU99A = tested on: LU99A
Outline: as §1

NCI-H2009 = tested on: NCI-H2009
Outline: as §1

EMC-BAC-2 = tested on: EMC-BAC-2
Outline: as §1

HARA = tested on: HARA
Outline: as §1

NCI-H1993 = tested on: NCI-H1993
Outline: as §1

NCI-H727 = tested on: NCI-H727
Outline: as §1

LK-2 = tested on: LK-2
Outline: as §1

NCI-H2170 = tested on: NCI-H2170
Outline: as §1

SW 1573 = tested on: SW 1573
Outline: as §1

HOP-62 = tested on: HOP-62
Outline: as §1

NCI-H596 = tested on: NCI-H596
Outline: as §1

SK-MES-1 = tested on: SK-MES-1
Outline: as §1

NCI-H1792 = tested on: NCI-H1792
Outline: as §1

SK-LU-1 = tested on: SK-LU-1
Outline: as §1

NCI-H3122 = tested on: NCI-H3122
Outline: as §1

NCI-H1793 = tested on: NCI-H1793
Outline: as §1

PC-3 [JPC-3] = tested on: PC-3 [JPC-3]
Outline: as §1

SW 900 = tested on: SW 900
Outline: as §1

COR-L23 = tested on: COR-L23
Outline: as §1

NCI-H1944 = tested on: NCI-H1944
Outline: as §1

LXF-289 = tested on: LXF-289
Outline: as §1

ABC-1 = tested on: ABC-1
Outline: as §1

Work on Clc1ccc(Nc2nnc(Cc3ccncc3)c3ccccc23)cc1 [Vatalanib] + Nc1ncn([C@H]2C[C@H](O)[C@@H](CO)O2)c(=O)n1 [Decitabine] (partner 2 µM) yielded a relative viability (A-427; first compound 0.04 µM) of 0.6, a relative viability (A-427; first compound 0.1265 µM) of 0.544 and a relative viability (A-427; first compound 0.4 µM) of 0.601. For the same compound, the relative viability (A-427; first compound 4 µM) was 0.535, the relative viability (LU99A; first compound 0.04 µM) was 0.835 and the relative viability (LU99A; first compound 0.1265 µM) was 0.842. It also gave a relative viability (LU99A; first compound 0.4 µM) of 0.962, a relative viability (LU99A; first compound 1.265 µM) of 0.868 and a relative viability (LU99A; first compound 4 µM) of 0.84. It also gave a relative viability (NCI-H2009; first compound 0.04 µM) of 0.378, a relative viability (NCI-H2009; first compound 0.1265 µM) of 0.334 and a relative viability (NCI-H2009; first compound 0.4 µM) of 0.343. For the same compound, the relative viability (NCI-H2009; first compound 1.265 µM) was 0.404, the relative viability (NCI-H2009; first compound 4 µM) was 0.396 and the relative viability (EMC-BAC-2; first compound 0.04 µM) was 0.984. For the same compound, the relative viability (EMC-BAC-2; first compound 0.1265 µM) was 0.952, the relative viability (EMC-BAC-2; first compound 0.4 µM) was 0.983 and the relative viability (EMC-BAC-2; first compound 4 µM) was 0.956. For the same compound, the relative viability (HARA; first compound 0.04 µM) was 0.623, the relative viability (HARA; first compound 0.1265 µM) was 0.446 and the relative viability (HARA; first compound 0.4 µM) was 0.463. The relative viability (HARA; first compound 1.265 µM) was 0.526, the relative viability (HARA; first compound 4 µM) was 0.521 and the relative viability (NCI-H1993; first compound 0.04 µM) was 0.57. It also gave a relative viability (NCI-H1993; first compound 0.1265 µM) of 0.607, a relative viability (NCI-H1993; first compound 0.4 µM) of 0.541 and a relative viability (NCI-H1993; first compound 1.265 µM) of 0.488. For the same compound, the relative viability (NCI-H1993; first compound 4 µM) was 0.495, the relative viability (NCI-H727; first compound 0.1265 µM) was 0.801 and the relative viability (NCI-H727; first compound 0.4 µM) was 0.539. It also gave a relative viability (NCI-H727; first compound 1.265 µM) of 0.821, a relative viability (NCI-H727; first compound 4 µM) of 0.973 and a relative viability (LK-2; first compound 0.04 µM) of 0.242. It also gave a relative viability (LK-2; first compound 0.1265 µM) of 0.25, a relative viability (LK-2; first compound 0.4 µM) of 0.297 and a relative viability (LK-2; first compound 1.265 µM) of 0.266. The relative viability (LK-2; first compound 4 µM) was 0.319, the relative viability (NCI-H2170; first compound 0.04 µM) was 0.479 and the relative viability (NCI-H2170; first compound 0.1265 µM) was 0.474. The relative viability (NCI-H2170; first compound 0.4 µM) was 0.488, the relative viability (NCI-H2170; first compound 1.265 µM) was 0.469 and the relative viability (NCI-H2170; first compound 4 µM) was 0.487. It also gave a relative viability (SW 1573; first compound 0.04 µM) of 0.541, a relative viability (SW 1573; first compound 0.1265 µM) of 0.482 and a relative viability (SW 1573; first compound 0.4 µM) of 0.39. The relative viability (SW 1573; first compound 1.265 µM) was 0.455, the relative viability (SW 1573; first compound 4 µM) was 0.493 and the relative viability (HOP-62; first compound 0.04 µM) was 0.183. The relative viability (HOP-62; first compound 0.1265 µM) was 0.216, the relative viability (HOP-62; first compound 0.4 µM) was 0.223 and the relative viability (HOP-62; first compound 1.265 µM) was 0.239. For the same compound, the relative viability (HOP-62; first compound 4 µM) was 0.205, the relative viability (NCI-H596; first compound 0.04 µM) was 0.921 and the relative viability (NCI-H596; first compound 0.1265 µM) was 1.14. It also gave a relative viability (NCI-H596; first compound 0.4 µM) of 1.22, a relative viability (NCI-H596; first compound 1.265 µM) of 1.01 and a relative viability (NCI-H596; first compound 4 µM) of 1.02. For the same compound, the relative viability (SK-MES-1; first compound 0.04 µM) was 0.358, the relative viability (SK-MES-1; first compound 0.1265 µM) was 0.342 and the relative viability (SK-MES-1; first compound 0.4 µM) was 0.415. It also gave a relative viability (SK-MES-1; first compound 1.265 µM) of 0.287, a relative viability (SK-MES-1; first compound 4 µM) of 0.353 and a relative viability (NCI-H1792; first compound 0.04 µM) of 0.614. For the same compound, the relative viability (NCI-H1792; first compound 0.1265 µM) was 0.465, the relative viability (NCI-H1792; first compound 0.4 µM) was 0.608 and the relative viability (NCI-H1792; first compound 1.265 µM) was 0.515. The relative viability (NCI-H1792; first compound 4 µM) was 0.55, the relative viability (SK-LU-1; first compound 0.04 µM) was 0.614 and the relative viability (SK-LU-1; first compound 0.1265 µM) was 0.584. It also gave a relative viability (SK-LU-1; first compound 0.4 µM) of 0.668, a relative viability (SK-LU-1; first compound 1.265 µM) of 0.668 and a relative viability (SK-LU-1; first compound 4 µM) of 0.52. For the same compound, the relative viability (NCI-H3122; first compound 0.04 µM) was 0.411, the relative viability (NCI-H3122; first compound 0.1265 µM) was 0.432 and the relative viability (NCI-H3122; first compound 0.4 µM) was 0.406. The relative viability (NCI-H3122; first compound 1.265 µM) was 0.438, the relative viability (NCI-H3122; first compound 4 µM) was 0.457 and the relative viability (NCI-H1793; first compound 0.04 µM) was 0.374. The relative viability (NCI-H1793; first compound 0.1265 µM) was 0.463, the relative viability (NCI-H1793; first compound 0.4 µM) was 0.599 and the relative viability (NCI-H1793; first compound 1.265 µM) was 0.499. For the same compound, the relative viability (NCI-H1793; first compound 4 µM) was 0.463, the relative viability (PC-3 [JPC-3]; first compound 0.04 µM) was 0.843 and the relative viability (PC-3 [JPC-3]; first compound 0.1265 µM) was 0.81. For the same compound, the relative viability (PC-3 [JPC-3]; first compound 0.4 µM) was 0.663, the relative viability (PC-3 [JPC-3]; first compound 1.265 µM) was 0.857 and the relative viability (PC-3 [JPC-3]; first compound 4 µM) was 0.777. For the same compound, the relative viability (SW 900; first compound 0.04 µM) was 0.421, the relative viability (SW 900; first compound 0.1265 µM) was 0.457 and the relative viability (SW 900; first compound 0.4 µM) was 0.447. For the same compound, the relative viability (SW 900; first compound 1.265 µM) was 0.423, the relative viability (SW 900; first compound 4 µM) was 0.425 and the relative viability (COR-L23; first compound 0.04 µM) was 0.503. The relative viability (COR-L23; first compound 0.1265 µM) was 0.414, the relative viability (COR-L23; first compound 0.4 µM) was 0.565 and the relative viability (COR-L23; first compound 1.265 µM) was 0.441. It also gave a relative viability (COR-L23; first compound 4 µM) of 0.404, a relative viability (NCI-H1944; first compound 0.04 µM) of 0.427 and a relative viability (NCI-H1944; first compound 0.1265 µM) of 0.393. The relative viability (NCI-H1944; first compound 0.4 µM) was 0.476, the relative viability (NCI-H1944; first compound 1.265 µM) was 0.398 and the relative viability (NCI-H1944; first compound 4 µM) was 0.419. The relative viability (LXF-289; first compound 0.04 µM) was 0.368, the relative viability (LXF-289; first compound 0.1265 µM) was 0.38 and the relative viability (LXF-289; first compound 0.4 µM) was 0.445. It also gave a relative viability (LXF-289; first compound 1.265 µM) of 0.361, a relative viability (LXF-289; first compound 4 µM) of 0.352 and a relative viability (ABC-1; first compound 0.04 µM) of 1.02. For the same compound, the relative viability (ABC-1; first compound 0.1265 µM) was 0.79, the relative viability (ABC-1; first compound 0.4 µM) was 1.17 and the relative viability (ABC-1; first compound 4 µM) was 1.22.
